Results from patent EP0407582A1, “DERIVATIVES OF TRICHLOROPHOSPHAS[…] INSECTICIDAL, VIRICIDAL, HEMATOCIDAL, FUNGICIDAL AND OVOCIDAL PREPARATIONS BASED ON THEM” (priority 1989, dated 1990).
Where two headings read alike, the source gives them in different places.

Columns and labels:
domestic flies [1] = experiment: Insecticidal activity, large-scale test in living and industrial premises; format: in vivo; settings: 0.25% solution with 5% glucose solution, 2-3 dishes per 20 m2; 72 hours
Description: The large-scale tests of the activity of the insecticidal composition, according to the invention, was conducted on domestic flies in living and industrial premises. Petri dishes containing a 0.25% aqueous solution of the insecticide, according to the invention, added with a 5% glucose solution, were put at a rate of 2-3 dishes per 20 m2. The .activity of the composition of the invention was estimated by a direct count of dead insects in 72 hours or by using the adhesive tapes, counting the number of flies on the tape prior and after carrying out the test.

domestic flies [2] = experiment: Insecticidal activity, laboratory test in gauze boxes; format: in vivo; settings: 0.25% solution in 5% aqueous glucose solution; death rate estimated in 48 - 72 hours
Description: An insecticidal composition based thereon, which was a 0.25% solution of this compound in a 5% aqueous glucose solution, was prepared. The laboratory and large-scale tests of the activity of an insecticidal composition of the invention was conducted on domestic flies. for laboratory tests into the gauze-made boxes (10x10 cm, 6 boxes), there were placed 6-7-day flies of both sexes by 50 individuals per each box. Into 5 boxes there were placed Petri dishes containing the insecticidal composition of the invention. The death rate of flies was estimated-in 48 - 72 hours. A Petri dish containing a 5% aqueous solution of glucose was placed into the control box. The insecticidal activity of the composition, according to the invention, was tested in comparison with a known insecticidal composition containing 0,0-dimethyl-/1-hydroay-2,2-trichloroethyl/phosphonate.

[3] = Solubility in water and organic solvents; format: physicochemical; settings: qualitative, solvents named
hepatitis B virus [4] = test system: hepatitis B virus
influenza A virus [5] = test system: influenza A virus
Diplodia zeae [6] = experiment: Fungicidal activity, field test on sprayed potato plots; format: in vivo
Description: (§1) In the field conditions potato plantations of 5 m^2 in size affected by Fusarium oxysporem, Fusarium moniliforme, Betrytis cinerea, Fusarium culmorum, Diplodia Verturia inaequalis, Rhyzoctonia aderholdii were sprayed by a fungicidal composition of the. invention.
(§2) For comparison, a similar spraying of the affected potato-plots was carried out using a. known fungicidal compositions.

Fusarium moniliforme [7] = experiment: as above; format: in vivo
Description: as §1, §2

Botrytis cinerea [8] = experiment: as above; format: in vivo
Description: as §1, §2

Verturia inaequalis [9] = experiment: as above; format: in vivo
Description: as §1, §2

Fusarium culmorum [10] = experiment: as above; format: in vivo
Description: as §1, §2

Fusarium oxysporum [11] = experiment: as above; format: in vivo
Description: as §1, §2

Rhyzoctonia aderholdii [12] = experiment: as above; format: in vivo
Description: as §1, §2

Verticillium albo-atrum [13] = experiment: Fungicidal activity, laboratory test on potato-dextrose agar; format: cell-based; settings: 0.01 % by mass of active principle
Description: (§3) Based on the compound, a fungicidal composition was prepared in the form of a 0.01% solution thereof in distilled water. A fungicidal activity of the compound, according to the invention, was tested for inhibition of vegetative fungi growth such as Fusarium oxyporum, Fusarium moniliforme, Botrytis cinerea, Fusarium culmorum, Diplodia zeae, Rhyzoctonia violacea, Verticillium alboartrum, Verturia inaequalis, Rhyzoctonia aderholdii affecting potato, sugar beet, cotton seeds. The tests were conducted either in laboratory or in field conditions. For tests, the composition of the invention containing-0.01 % by mass of an active principle was introduced into Petri dishes with a nutrient medium, specifically, potato-dextrose agar. The phytopathogenic fungi mycelium was plated on the Petri dishes with this agar culture. The phytopathogenic fungi were plated on control dishes with agar culture without adding the composition of the invention. The fungicidal action of the composition, according to the invention, was tested in comparison with the known fungicidal composition based on 2,3-dichloronaphthoquinone-1,4 (phygon), zinc N,N'-ethylene-bis-(dithiocarbamate) (zineb) and thiuram.

Diplodia zeae [14] = experiment: as above; format: cell-based; settings: 0.01 % by mass of active principle
Description: as §3

Fusarium moniliforme [15] = experiment: as above; format: cell-based; settings: 0.01 % by mass of active principle
Description: as §3

Botrytis cinerea [16] = experiment: as above; format: cell-based; settings: 0.01 % by mass of active principle
Description: as §3

Verturia inaequalis [17] = experiment: as above; format: cell-based; settings: 0.01 % by mass of active principle
Description: as §3

Fusarium culmorum [18] = experiment: as above; format: cell-based; settings: 0.01 % by mass of active principle
Description: as §3

Rhyzoctonia violacea [19] = experiment: as above; format: cell-based; settings: 0.01 % by mass of active principle
Description: as §3

Fusarium oxysporum [20] = experiment: as above; format: cell-based; settings: 0.01 % by mass of active principle
Description: as §3

Rhyzoctonia aderholdii [21] = experiment: as above; format: cell-based; settings: 0.01 % by mass of active principle
Description: as §3

Verticillium albo-atrum [22] = experiment: Fungicidal activity, field test on sprayed potato plots; format: in vivo
Rhyzoctonia violacea [23] = experiment: as above; format: in vivo
poliomyelitis virus = experiment: microbe, parasite or virus in culture; format: cell-based, poliomyelitis-II virus
hepatitis B virus [24] = experiment: Virucidal activity, suspension method under protein loading, counter-current immunoelectrophoresis
influenza A virus [25] = experiment: microbe, parasite or virus in culture; set-up: species or system strain of influenza A1 virus

| SMILES | solubility [3] | Inhibition of colony growth of phytopatogenic,fungi,% Diplidia zeae field (Diplodia zeae [6]) [%] | Inhibition of colony growth of phyto-pathogenic fungi, % Fusarium moniliforme field (Fusarium moniliforme [7]) [%] | Inhibition of colony growth of phyto-pathogenic fungi, % Botrytis cinerea field (Botrytis cinerea [8]) [%] | Inhibition of colony growth of phytopathogenic fungi,% Verturia inaequalis field (Verturia inaequalis [9]) [%] | Inhibition of colony growth of phytopatogenic,fungi,% Fusarium culmorum field (Fusarium culmorum [10]) [%] | Inhibition of colony growth of phyto-pathogenic fungi, % Fusarium oxysporum field (Fusarium oxysporum [11]) [%] | Inhibition of colony growth of phytopathogenic fungi,% Rhyzoctonia aderholdii field (Rhyzoctonia aderholdii [12]) [%] | Inhibition of colony growth of phytopathogenic fungi,% Verticillium albo-atrum laboratory (Verticillium albo-atrum [13]) [%] | Inhibition of colony growth of phytopatogenic,fungi,% Diplidia zeae laboratory (Diplodia zeae [14]) [%] | Inhibition of colony growth of phyto-pathogenic fungi, % Fusarium moniliforme laboratory (Fusarium moniliforme [15]) [%] | Inhibition of colony growth of phyto-pathogenic fungi, % Botrytis cinerea laboratory (Botrytis cinerea [16]) [%] | Inhibition of colony growth of phytopathogenic fungi,% Verturia inaequalis laboratory (Verturia inaequalis [17]) [%] | Inhibition of colony growth of phytopatogenic,fungi,% Fusarium culmorum laboratory (Fusarium culmorum [18]) [%] | Inhibition of colony growth of phytopatogenic,fungi,% Rhyzoctonia violacea laboratory (Rhyzoctonia violacea [19]) [%] | Inhibition of colony growth of phyto-pathogenic fungi, % Fusarium oxysporum laboratory (Fusarium oxysporum [20]) [%] | Inhibition of colony growth of phytopathogenic fungi,% Rhyzoctonia aderholdii laboratory (Rhyzoctonia aderholdii [21]) [%] | Inhibition of colony growth of phytopathogenic fungi,% Verticillium albo-atrum field (Verticillium albo-atrum [22]) [%] | Inhibition of colony growth of phytopatogenic,fungi,% Rhyzoctonia violacea field (Rhyzoctonia violacea [23]) [%] | further results |
| --- | --- | --- | --- | --- | --- | --- | --- | --- | --- | --- | --- | --- | --- | --- | --- | --- | --- | --- | --- | --- |
| O=C(N=P(OCCCl)(OCCCl)OCCCl)c1ccccc1 [Example 1, tris-(2-chloroethoxy)phosphazobenzoyl] | soluble in water, alcohols, toluene |  |  |  |  |  |  |  |  |  |  |  |  |  |  |  |  |  |  | Death of flies, % Tests large-scale (domestic flies [1]): 85%; Death of flies, % Tests laboratory (domestic flies [2]): 86% |
| CC(C)(OP(=NC(=O)c1ccccc1)(OC(C)(C)C(Cl)(Cl)Cl)OC(C)(C)C(Cl)(Cl)Cl)C(Cl)(Cl)Cl [Example 2, tris-(dimethyl-2,2,2-trichloroethoxy)phosphazobenzoyl] | soluble in water, alcohols, acetone, benzene, toluene |  |  |  |  |  |  |  |  |  |  |  |  |  |  |  |  |  |  | Death of flies, % Tests large-scale (domestic flies [1]): 88%; Death of flies, % Tests laboratory (domestic flies [2]): 90% |
| O=C(N=P(OC[C@@H](NC(=O)C(Cl)Cl)[C@H](O)c1ccc([N+](=O)[O-])cc1)(OC[C@@H](NC(=O)C(Cl)Cl)[C@H](O)c1ccc([N+](=O)[O-])cc1)OC[C@@H](NC(=O)C(Cl)Cl)[C@H](O)c1ccc([N+](=O)[O-])cc1)c1ccccc1 [Example 4, tris-d/-/-threo-3-para nitrophenyl--2-dichloroacetamido-3-hydroxypropoxy/phosphazobenzoyl] |  |  |  |  |  |  |  |  |  |  |  |  |  |  |  |  |  |  |  | inhibition of viral antigen titers, Hepatitis B virus (hepatitis B virus [4]; 1% solution in 0.85% sodium chloride, exposure 5, 30, 60 minutes): 100; inhibition of viral antigen titers, Influenza A virus (influenza A virus [5]; 1% solution): 100 |
| O=C(N=P(Nc1ccc(Cl)cc1[N+](=O)[O-])(Nc1ccc(Cl)cc1[N+](=O)[O-])Nc1ccc(Cl)cc1[N+](=O)[O-])c1ccc(Br)cc1 [Example 6, tris--(para-chloro -ortho-nitroanilido)phosphazo-para-bromobenzoyl] | soluble in water, acetone, alcohols, benzene | 100 | 100 | 100 | 100 | 69 | 100 | 100 | 100 | 100 | 100 | 100 | 100 | 70 | 100 | 100 | 100 | 100 | 100 |  |
| O=S(=O)(NCl)c1ccccc1.[Na] [sodium-N-chloro-benzene sulf-amide, sodium N-chlorobenzene sulphonamide] |  |  |  |  |  |  |  |  |  |  |  |  |  |  |  |  |  |  |  | inhibition of viral antigen titers, Hepatitis B virus (hepatitis B virus [4]): 50; inhibition of viral antigen titers, Influenza A virus (influenza A virus [5]): 50; killing at 1 % (poliomyelitis virus; 10 min, read-out: Death of viruses (%) under exposure, Poliomyelitis, 10 min): 0%; killing at 1 % (poliomyelitis virus; 0.5 h, read-out: Death of viruses (%) under exposure, Poliomyelitis, 30 min): 12.5%; killing at 1 % (poliomyelitis virus; 1 h, read-out: Death of viruses (%) under exposure, Poliomyelitis, 60 min): 25%; killing at 1 % (hepatitis B virus [24]; 0.25 h, read-out: Death of viruses (%) under exposure, Hepatitis B, 15 min): 0%; killing at 1 % (hepatitis B virus [24]; 0.5 h, read-out: Death of viruses (%) under exposure, Hepatitis B, 30 min): 12.5%; killing at 1 % (hepatitis B virus [24]; 1 h, read-out: Death of viruses (%) under exposure, Hepatitis B, 60 min): 25%; killing at 1 % (influenza A virus [25]; 0.25 h, read-out: Death of viruses (%) under exposure, Influenza A, 15 min): 0%; killing at 1 % (influenza A virus [25]; 0.5 h, read-out: Death of viruses (%) under exposure, Influenza A, 30 min): 12.5%; killing at 1 % (influenza A virus [25]; 1 h, read-out: Death of viruses (%) under exposure, Influenza A, 60 min): 25% |
| O=C1C(Cl)=C(Cl)C(=O)c2ccccc21 [phygon, 2,3-dichloronaphthoquinone-1,4] |  | 81 | 32 | 32 | 61 | 45 | 30 | 55 | 63 | 71 | 35 | 38 | 58 | 57 | 34 | 35 | 54 | 66 | 33 |  |
| S=C([S-])NCCNC(=S)[S-].[Zn+2] [zineb, zinc N,N'-ethylene-bis-(dithiocarbamate)] |  | 100 | 62 | 98 | 98 | 54 | 59 | 100 | 80 | 100 | 60 | 100 | 100 | 57 | 100 | 58 | 100 | 78 | 100 |  |
